The subject of one assay is trypsin. Briefly: Phage TRF binding assay of KnotBody phage on immobilised biotinylated trypsin. As to conditions: EETI-II directly fused to the N-terminus of gene III; TRF. As for the experimental part: Phage display technology facilitates isolation of binders to any given target from large combinatorial repertoires based on proteins and peptides that can be presented on the surface of filamentous phage^105. In order to isolate functional knottin-antibody fusions from the KnotBody libraries multiple rounds of phage display selections on trypsin (cognate antigen for the EETI-II donor) were carried out. Phage particles were prepared by rescuing KnotBody libraries using trypsin cleavable helper phage^102,106 Two rounds of phage display selections were performed on 10 μg/ml biotinylated trypsin immobilised on Streptavidin (for Round-1) or Neutravidin (for round-2) coated Maxisorp™ immunotubes (Thermo Scientific, Cat No. 444202). In both rounds of selection, phage libraries were pre-incubated with streptavidin coated paramagnetic beads (Thermo Fisher Scientific, Cat. No. 11205D). […] Polyclonal phage preparations from round-2 selection outputs were analysed for trypsin binding using a time resolved fluorescence (TRF) binding assay. In this assay, polyclonal phage binding to biotinylated trypsin immobilised on neutravidin (Thermo Fisher Scientific, Cat. No 31000) coated Maxisorp™ plates (Thermo Scientific, Cat. No. 437111) was detected using a mouse anti-M13 antibody (GE Healthcare, Cat. No. 27-9420-01) followed by europium conjugated anti-mouse antibody (Perkin Elmer, Cat. No. AD0124). […]

In a further assay the target is T1, huASIC1a (Homo sapiens, UniProt P78348).
T1 sequence (P78348 whole entry, looked up): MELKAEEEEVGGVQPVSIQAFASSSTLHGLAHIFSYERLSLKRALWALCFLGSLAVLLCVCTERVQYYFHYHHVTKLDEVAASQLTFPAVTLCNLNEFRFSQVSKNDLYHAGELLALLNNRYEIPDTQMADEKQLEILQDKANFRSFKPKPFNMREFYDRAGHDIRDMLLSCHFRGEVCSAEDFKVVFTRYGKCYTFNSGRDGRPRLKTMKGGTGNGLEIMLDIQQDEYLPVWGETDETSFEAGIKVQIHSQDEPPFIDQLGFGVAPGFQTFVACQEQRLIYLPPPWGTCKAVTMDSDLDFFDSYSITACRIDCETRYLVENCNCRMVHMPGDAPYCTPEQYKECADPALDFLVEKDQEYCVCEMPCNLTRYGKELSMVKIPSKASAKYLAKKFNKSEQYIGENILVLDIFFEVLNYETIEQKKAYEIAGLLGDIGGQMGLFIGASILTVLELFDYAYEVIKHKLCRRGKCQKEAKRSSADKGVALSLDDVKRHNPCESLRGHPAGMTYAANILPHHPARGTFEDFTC
Briefly: QPatch automated whole-cell patch-clamp on HEK293 cells stably expressing huASIC1a. The class given is cell-based. The following applies: full blocking 300 nM PcTx1 (positive control) perfused at end of each KnotBody or control incubation, then pH 6.0; one value per preceding sample. How it is done: Knottin Kv 1.3 and ASIC1a blockers expressed in the KnotBody format (see examples 6 and 7) were tested for their ability to inhibit the function of the ion channel targets. The effect of these KnotBodies on cells expressing the human Kv 1.3 (huKv1.3) or human ASIC1a channels was assessed using QPatch automated whole-cell patch-clamp electrophysiology (Sophion).
To functionally assess the ASIC1a KnotBodies, HEK293 cells stably expressing huASIC1a (Sophion) were analysed using a QPatch electrophysiology assay in the presence or absence of the KnotBody fusions (using KB_A12 as a recipient and replacing the original EETI-II donor as shown in Table 8). The “parental” KB_A12 with the EETI-II donor was used as a negative control. Internal and external physiological solutions were freshly prepared prior to the assay. […]
At the end of each KnotBody incubation and subsequent ASIC1a current activation, a full blocking concentration (300 nM) of the ASIC1a knottin inhibitor PcTx1 (positive control) was perfused onto the cell recording and a final activating pH 6.0 external solution was applied. The percentage remaining signal between activating pH 6.0 baseline (i.e. pre-KnotBody) and post-KnotBody incubation was determined.

Values joined by “and” are separate entries in the source; they are usually repeats but may differ in a detail not shown here. Equal values may be shown once.

On to EETI-II [reference compound], for which the “binding to trypsin of phage” value in the assay on trypsin was “no detectable binding to trypsin”.

For “PcTx1: ASIC1a knottin inhibitor, positive control at 300 nM; SEQ ID NO: 20”, in the assay with huASIC1a, the “% current remaining PcTx1 (300 nM)” value is 2% and 1.9% and 2.7% and 3.8% and 3.6%.

The values are drawn from patent US11932673B2, “Sodium channel inhibitors” (priority 2017, dated 2024).
